Results: PMC3500524 (Cancer cell, 2012)
Each block holds one compound with its values, some of them ahead of it.

Experiments:
PHGDH = target: T1, PHGDH (Homo sapiens, UniProt O43175); assay: PHGDH enzyme activity assay; format: biochemical
T1 sequence (O43175 1-533): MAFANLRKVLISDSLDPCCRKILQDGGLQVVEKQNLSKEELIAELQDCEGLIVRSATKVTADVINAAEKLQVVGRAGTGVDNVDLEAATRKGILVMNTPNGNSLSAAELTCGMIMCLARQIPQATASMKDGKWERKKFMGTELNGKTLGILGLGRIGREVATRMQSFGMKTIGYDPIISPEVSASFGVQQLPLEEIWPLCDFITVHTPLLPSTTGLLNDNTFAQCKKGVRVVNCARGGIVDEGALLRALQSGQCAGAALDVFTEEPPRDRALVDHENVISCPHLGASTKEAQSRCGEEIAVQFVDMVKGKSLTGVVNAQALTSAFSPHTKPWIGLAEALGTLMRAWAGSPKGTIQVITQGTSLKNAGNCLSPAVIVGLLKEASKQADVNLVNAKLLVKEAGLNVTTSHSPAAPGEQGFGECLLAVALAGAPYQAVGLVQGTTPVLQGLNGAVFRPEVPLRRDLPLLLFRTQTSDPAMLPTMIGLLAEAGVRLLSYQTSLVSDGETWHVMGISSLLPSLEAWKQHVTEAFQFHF

6PGD [1] = target: T2, 6PGD (Homo sapiens, UniProt P52209); assay: in vitro 6PGD enzyme activity assay; format: biochemical; details: H1299 cell lysates or r6PGD
T2 sequence (P52209 1-483): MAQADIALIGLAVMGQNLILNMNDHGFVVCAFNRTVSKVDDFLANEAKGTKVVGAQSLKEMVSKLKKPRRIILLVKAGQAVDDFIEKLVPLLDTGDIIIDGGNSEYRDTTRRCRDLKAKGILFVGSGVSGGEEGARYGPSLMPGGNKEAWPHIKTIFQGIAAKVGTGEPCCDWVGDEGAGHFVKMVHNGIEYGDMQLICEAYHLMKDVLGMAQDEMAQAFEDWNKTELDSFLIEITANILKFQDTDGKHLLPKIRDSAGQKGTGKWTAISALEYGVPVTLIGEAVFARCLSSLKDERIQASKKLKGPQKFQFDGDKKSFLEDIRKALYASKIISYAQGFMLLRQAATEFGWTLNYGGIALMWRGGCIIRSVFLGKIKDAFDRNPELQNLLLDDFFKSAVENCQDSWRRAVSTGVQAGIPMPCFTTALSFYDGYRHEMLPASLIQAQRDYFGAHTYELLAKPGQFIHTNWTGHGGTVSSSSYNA

G6PD = G6PD (Homo sapiens, UniProt P11413); assay: in vitro G6PD enzyme activity assay; format: biochemical; details: increasing concentrations; H1299 cell lysates or rG6PD
6PGD [2] = target: T2, 6PGD; assay: thermal melt shift assay of 6PGD with ligand; format: binding; details: read-out: Kd for protein (6PGD)-ligand interaction
6PGD [3] = target: T2, 6PGD; assay: 6PGD enzyme kinetics
PGAM1 = PGAM1 (Homo sapiens, UniProt P18669); details: intact cells, ref Evans et al., 2007, 2005; cited from earlier work
cancer cells = details: ref Engel et al., 2004; Evans et al., 2005; cited from earlier work
nude mice = assay: toxicity studies in nude mice; format: in vivo
[4] = tested on: primary leukemia cells from human patients; assay: treatment of primary leukemia cells from human patients; format: cell-based
H1299 xenograft = H1299 xenograft in nude mice; format: in vivo, mouse
H1299 cells [5] = assay: metabolism of H1299 cells under inhibitor treatment; format: cell-based, human
[6] = tested on: diverse human cancer and leukemia cells; assay: cell proliferation / viability by trypan blue exclusion; format: cell-based
H1299 cells [7] = assay: cell proliferation of H1299 cells; format: cell-based, human
[8] = tested on: human dermal fibroblasts (HDF), human foreskin fibroblasts (HFF), HaCaT keratinocyte cells, melanocyte PIG1 cells; assay: cell proliferation / viability of normal proliferating human cells; format: cell-based
[9] = target: purified human PGAM1 proteins (Homo sapiens, UniProt P18669); assay: PGAM1 enzyme assay; format: biochemical; details: comparison among alizarin and derivatives
[10] = tested on: human leukemia KG1a cells; assay: proliferation of KG1a cells; format: cell-based; details: dose-dependent
[11] = primary leukemia cells, representative AML patient
[12] = samples from 7 (1 CML and 6 AML) out of 8 leukemia patients

Sequence of purified human PGAM1 proteins (P18669 whole entry): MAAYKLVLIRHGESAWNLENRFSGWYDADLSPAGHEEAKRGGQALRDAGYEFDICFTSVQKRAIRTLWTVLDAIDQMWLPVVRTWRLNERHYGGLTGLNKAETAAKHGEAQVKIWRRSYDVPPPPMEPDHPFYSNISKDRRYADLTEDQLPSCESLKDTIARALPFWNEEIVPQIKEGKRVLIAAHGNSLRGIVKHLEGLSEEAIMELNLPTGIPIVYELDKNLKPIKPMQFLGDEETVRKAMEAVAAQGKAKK
Sequence of PGAM1 (P18669 whole entry): as above
Sequence of G6PD (P11413 whole entry): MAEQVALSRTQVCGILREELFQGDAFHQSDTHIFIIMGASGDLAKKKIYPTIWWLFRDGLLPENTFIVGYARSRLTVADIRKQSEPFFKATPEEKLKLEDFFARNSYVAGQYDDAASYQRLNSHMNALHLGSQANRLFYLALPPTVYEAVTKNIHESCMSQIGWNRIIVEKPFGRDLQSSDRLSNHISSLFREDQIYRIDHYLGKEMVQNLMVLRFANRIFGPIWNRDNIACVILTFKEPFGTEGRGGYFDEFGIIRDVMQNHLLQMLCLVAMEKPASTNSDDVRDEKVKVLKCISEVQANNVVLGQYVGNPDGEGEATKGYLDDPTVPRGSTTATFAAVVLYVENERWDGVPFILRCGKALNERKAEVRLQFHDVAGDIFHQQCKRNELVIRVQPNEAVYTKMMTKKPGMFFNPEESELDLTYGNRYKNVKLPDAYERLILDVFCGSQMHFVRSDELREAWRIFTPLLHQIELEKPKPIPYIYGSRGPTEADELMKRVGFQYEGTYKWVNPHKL

Compound: O=C(O)[C@@H](CO)OP(=O)(O)O [2-PG, 2-phosphoglycerate]
PHGDH activity (PHGDH; 2-PG ~15μM): did not significantly affect PHGDH activity
PHGDH enzyme activity (PHGDH; 2-PG ~45μM or ~60μM, H1299 PGAM1 knockdown cell lysates): higher PHGDH enzyme activity
enzyme activity of recombinant PHGDH (rPHGDH) (PHGDH; increasing concentrations of 2-PG): increased enzyme activity of recombinant PHGDH
6PGD enzyme activity (6PGD [1]; 2-PG): did not affect 6PGD enzyme activity

Compound: C#CCCCC(=O)OC(C)(C)C1CCC2(CO2)C(OC(=O)NC(Cc2c[nH]c3ccccc23)C(=O)OCc2ccccc2)C1 (stereo not shown) [MJE3]
PGAM1 activity (PGAM1): specifically inhibits PGAM1 activity exclusively in intact cells
cancer cell proliferation (cancer cells): attenuates cancer cell proliferation

Compound: O=C1c2ccccc2C(=O)c2c1cc(S(=O)(=O)Nc1ccc(C(F)(F)F)cc1)c(O)c2O [PGMI-004A]
histopathological analyses vs vehicle-treated group (nude mice): no notable differences
tolerability of chronic injection (nude mice; 100mg/kg/day intraperitoneally, 4 weeks): well-tolerated dose
body weight, complete blood counts (CBC), hematopoietic properties (nude mice; 100mg/kg/day, 7 days): did not result in significant alteration
2-PG levels [4, 11]: decreased 2-PG levels
3-PG levels [4, 11]: increased 3-PG
PGAM1 activity [4, 12]: reduced PGAM1 activity
cell viability [4, 12]: decreased cell viability
lactate production [4, 12]: reduced
PGAM1 enzyme activity in resected tumors (H1299 xenograft; 100mg/kg/day): effectively inhibits PGAM1 enzyme activity in tumors
tumor growth and tumor size (H1299 xenograft; 100mg/kg/day i.p., 21 days, vs vehicle): significantly decreased tumor growth and tumor size
2-PG levels (H1299 cells [5]): decreased 2-PG
3-PG levels (H1299 cells [5]): increased 3-PG levels
biosynthesis of RNA (H1299 cells [5]): reduced biosynthesis
biosynthesis of lipids (H1299 cells [5]): reduced biosynthesis of lipids
intracellular ATP levels (H1299 cells [5]): no significant effect on intracellular ATP levels
lactate production (H1299 cells [5]): significantly reduced lactate production
oxidative PPP flux (H1299 cells [5]): decreased oxidative PPP flux
cell proliferation [6]: decreased cell proliferation
cell proliferation (H1299 cells [7]): reduced
non-specific toxicity (cell proliferation) in normal cells [8]: minimal non-specific toxicity

Compound: O=C1c2ccccc2C(=O)c2c1ccc(O)c2O [alizarin, 1,2-dihydroxyanthraquinone]
cell proliferation [10]: decreased proliferation

Second part, led by results:

Kd (6PGD [2]): 460 ± 40 µM
mode of 6PGD inhibition (6PGD [3]; Lineweaver-Burk plot, 3-PG ~250μM, 6-PG ~35μM): competitive inhibitor of 6PGD
Ki (6PGD [3]; read-out: inhibition constant (Ki) of 6PGD, Dixon plot): 489 ± 13 µM
6PGD enzyme activity (6PGD [1]; 3-PG ~250μM): decreased enzyme activity of 6PGD
Compound: O=C(O)[C@H](O)COP(=O)(O)O [3-PG, 3-phosphoglycerate]
G6PD activity (G6PD): did not significantly affect G6PD activity
6PGD enzyme activity (6PGD [1]; 3-PG ~60μM): do not significantly affect 6PGD enzyme activity

relative potency as PGAM1 inhibitor in vitro [9]: more potent PGAM1 inhibitor
Compound: O=C1c2ccccc2C(=O)c2c1cc(S(=O)(=O)O)c(O)c2O [alizarin Red S]
